Reference: patent US20220313629A1, “TRANSIENT POTENTIAL MELASTATIN 8 (TRPM8) ANTAGONISTS AND RELATED METHODS” (MARSHALL UNIVERSITY RESEARCH CORPORATION, priority 2019, published 2022)
Read-outs that look alike come from different tables or passages of the source.

Tests used:
Type in all cases: cell-based
human TRPA1 = human TRPA1 (Homo sapiens, UniProt O75762); test: TRPA1 agonist and antagonist Ca2+ flux assay (FLIPR, Fluo-8) in HEK293 cells stably expressing human TRPA1
human TRPV1 = human TRPV1 (Homo sapiens, UniProt Q8NER1); test: TRPV1 agonist and antagonist Ca2+ flux assay (FLIPR, Fluo-8) in HEK293 cells stably expressing human TRPV1
human TRPV1, sequence (Q8NER1 whole entry): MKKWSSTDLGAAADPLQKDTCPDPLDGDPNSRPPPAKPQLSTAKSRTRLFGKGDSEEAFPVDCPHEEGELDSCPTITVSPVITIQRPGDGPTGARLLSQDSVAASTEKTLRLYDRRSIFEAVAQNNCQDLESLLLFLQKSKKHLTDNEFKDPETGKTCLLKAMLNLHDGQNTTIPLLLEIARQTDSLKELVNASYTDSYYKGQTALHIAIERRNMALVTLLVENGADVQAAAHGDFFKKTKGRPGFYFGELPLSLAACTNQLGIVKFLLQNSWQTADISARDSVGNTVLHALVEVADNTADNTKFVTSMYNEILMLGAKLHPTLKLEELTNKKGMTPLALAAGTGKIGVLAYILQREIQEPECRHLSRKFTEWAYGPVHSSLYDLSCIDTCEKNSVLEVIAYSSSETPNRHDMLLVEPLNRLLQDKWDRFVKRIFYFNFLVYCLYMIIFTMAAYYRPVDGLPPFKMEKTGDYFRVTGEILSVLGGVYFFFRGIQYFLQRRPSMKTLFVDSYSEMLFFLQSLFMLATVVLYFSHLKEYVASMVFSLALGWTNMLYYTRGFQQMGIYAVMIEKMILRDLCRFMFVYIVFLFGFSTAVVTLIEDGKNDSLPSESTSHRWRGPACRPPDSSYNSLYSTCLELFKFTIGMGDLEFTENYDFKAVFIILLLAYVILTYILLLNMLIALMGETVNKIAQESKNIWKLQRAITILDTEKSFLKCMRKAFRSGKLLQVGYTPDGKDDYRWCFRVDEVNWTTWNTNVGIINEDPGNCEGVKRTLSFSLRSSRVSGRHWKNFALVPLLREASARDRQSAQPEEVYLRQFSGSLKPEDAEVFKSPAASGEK

TRPM8 = TRPM8 (Homo sapiens, UniProt Q7Z2W7); test: TRPM8 antagonist activity by Fura-2 Ca2+ imaging in HEK-293 cells stably expressing human TRPM8; conditions: for IC50: read-out: Functional Activity hTRPM8 potency IC50 ± SEM
TRPM8, sequence (Q7Z2W7 whole entry): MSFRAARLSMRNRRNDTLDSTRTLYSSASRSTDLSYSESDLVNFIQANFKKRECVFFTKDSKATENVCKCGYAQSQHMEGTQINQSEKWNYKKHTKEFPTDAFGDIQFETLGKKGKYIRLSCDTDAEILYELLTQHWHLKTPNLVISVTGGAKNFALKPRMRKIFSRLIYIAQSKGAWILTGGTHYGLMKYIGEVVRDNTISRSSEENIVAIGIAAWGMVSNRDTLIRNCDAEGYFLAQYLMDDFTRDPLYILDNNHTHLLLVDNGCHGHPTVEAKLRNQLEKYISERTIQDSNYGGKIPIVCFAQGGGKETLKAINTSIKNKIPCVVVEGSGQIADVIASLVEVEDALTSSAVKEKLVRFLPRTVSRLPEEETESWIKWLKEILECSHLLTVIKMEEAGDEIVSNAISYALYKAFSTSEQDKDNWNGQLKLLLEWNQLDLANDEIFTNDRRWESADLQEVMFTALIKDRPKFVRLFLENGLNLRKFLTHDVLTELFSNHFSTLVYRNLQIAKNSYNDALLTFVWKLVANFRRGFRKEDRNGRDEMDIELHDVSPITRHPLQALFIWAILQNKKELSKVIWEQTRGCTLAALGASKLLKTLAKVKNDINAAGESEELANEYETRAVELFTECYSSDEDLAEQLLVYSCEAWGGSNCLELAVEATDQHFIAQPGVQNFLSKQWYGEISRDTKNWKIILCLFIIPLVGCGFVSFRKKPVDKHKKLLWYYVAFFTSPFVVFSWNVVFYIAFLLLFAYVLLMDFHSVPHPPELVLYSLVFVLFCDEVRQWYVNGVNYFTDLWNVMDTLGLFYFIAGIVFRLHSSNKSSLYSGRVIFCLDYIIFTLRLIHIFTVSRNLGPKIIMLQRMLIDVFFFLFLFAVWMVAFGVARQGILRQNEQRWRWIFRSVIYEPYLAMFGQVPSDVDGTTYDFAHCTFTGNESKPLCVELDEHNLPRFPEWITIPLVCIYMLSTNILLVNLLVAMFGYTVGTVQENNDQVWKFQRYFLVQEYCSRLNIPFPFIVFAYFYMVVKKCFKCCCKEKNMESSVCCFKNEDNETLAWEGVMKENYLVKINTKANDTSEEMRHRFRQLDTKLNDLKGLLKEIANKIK

[1] = HEK293; read-out: hTRPA1 % Inhibition (n = 3)
[2] = at concentrations 13- to 25-fold higher than hTRPM8 IC50
[3] = HEK293; read-out: hTRPV1 % Inhibition (n = 3)
[4] = HEK293, read-out: hTRPA1 % Inhibition (n = 3)
[5] = tested at 100 nM; normalized to Emax of AITC (300 μM)
[6] = tested at 1 μM; normalized to Emax of AITC (300 μM)
[7] = HEK293, read-out: hTRPV1 % Inhibition (n = 3)
[8] = tested at 100 nM; normalized to Emax of capsaicin (3 μM)
[9] = tested at 1 μM; normalized to Emax of capsaicin (3 μM)
[10] = HEK293; read-out: % Activation Mean ± SEM (n = 5), TRPV1 antagonist data (Percentage Inhibition Normalized to EC80 Control)
[11] = inhibition of icilin (500 nM)-evoked Ca2+ entry, HEK-293 cells stably expressing hTRPM8, mean ± SEM, three independent experiments

human TRPA1, sequence (O75762 whole entry): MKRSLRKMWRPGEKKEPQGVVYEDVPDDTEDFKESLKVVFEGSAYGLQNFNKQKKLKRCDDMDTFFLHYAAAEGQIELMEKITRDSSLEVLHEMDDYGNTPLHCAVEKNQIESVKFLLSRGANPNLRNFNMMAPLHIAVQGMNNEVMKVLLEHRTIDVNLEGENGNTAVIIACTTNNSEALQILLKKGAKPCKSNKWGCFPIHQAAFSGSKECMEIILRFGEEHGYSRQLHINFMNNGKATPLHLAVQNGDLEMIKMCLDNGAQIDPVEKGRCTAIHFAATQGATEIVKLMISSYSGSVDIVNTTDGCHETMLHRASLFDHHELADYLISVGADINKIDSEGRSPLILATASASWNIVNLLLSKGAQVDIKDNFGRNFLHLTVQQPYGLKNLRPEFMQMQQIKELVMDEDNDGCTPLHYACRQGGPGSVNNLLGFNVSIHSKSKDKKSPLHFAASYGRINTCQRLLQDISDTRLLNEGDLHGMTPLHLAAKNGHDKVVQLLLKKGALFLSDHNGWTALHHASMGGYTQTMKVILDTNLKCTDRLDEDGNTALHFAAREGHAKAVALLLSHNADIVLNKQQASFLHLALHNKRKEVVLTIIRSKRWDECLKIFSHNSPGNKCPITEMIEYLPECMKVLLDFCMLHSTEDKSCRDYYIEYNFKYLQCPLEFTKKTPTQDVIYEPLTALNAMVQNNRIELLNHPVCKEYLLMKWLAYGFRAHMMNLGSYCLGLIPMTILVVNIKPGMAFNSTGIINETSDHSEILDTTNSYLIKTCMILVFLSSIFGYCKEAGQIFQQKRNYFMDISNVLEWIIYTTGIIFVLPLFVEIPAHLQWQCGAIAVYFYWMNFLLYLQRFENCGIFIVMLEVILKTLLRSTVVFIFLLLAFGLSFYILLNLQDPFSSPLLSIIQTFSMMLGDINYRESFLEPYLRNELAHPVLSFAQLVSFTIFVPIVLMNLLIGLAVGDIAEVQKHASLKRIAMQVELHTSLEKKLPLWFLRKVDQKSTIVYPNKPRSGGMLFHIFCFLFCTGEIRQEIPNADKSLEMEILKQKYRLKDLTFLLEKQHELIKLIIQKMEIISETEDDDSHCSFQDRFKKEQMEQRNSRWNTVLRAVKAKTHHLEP

In the case of `O=C(NC1CCC2CCCCC2C1)c1ccc(-c2ccccc2)cc1` (racemic) [Compound 12, N-((2SR,9RS,10SR)-decahydronaphthalen-2-yl)-[1,1′-biphenyl]-4-carboxamide], the inhibition at 0.003 µM (human TRPA1; [1]) is reported as -0.3 ± 3%, the inhibition at 0.03 µM (human TRPA1; [1]) is reported as 5 ± 9% and the “effect on hTRPA1-mediated responses (intrinsic and antagonist activity)” value (human TRPA1; [2]) is reported as “do not affect”. The “hTRPA1 % Activation (n = 3-5)” value (human TRPA1; tested at 3 nM; normalized to Emax of AITC (300 μM)) was −2.3 ± 1.0%, the “hTRPA1 % Activation (n = 3-5)” value (human TRPA1; tested at 30 nM; normalized to Emax of AITC (300 μM)) was −2.1 ± 0.5% and the inhibition at 0.003 µM (human TRPV1; [3]) was -12 ± 3%. The inhibition at 0.03 µM (human TRPV1; [3]) was 1 ± 2%, the “effect on hTRPV1-mediated responses (intrinsic and antagonist activity)” value (human TRPV1; [2]) was “do not affect” and the “hTRPV1 % Activation (n = 3)” value (human TRPV1; tested at 3 nM; normalized to Emax of capsaicin (3 μM)) was 2 ± 1%. The “hTRPV1 % Activation (n = 3)” value (human TRPV1; tested at 30 nM; normalized to Emax of capsaicin (3 μM)) was 3 ± 1%.

Work on `CC(C)[C@@H]1CC[C@@H](C)C[C@H]1NC(=O)c1ccc(-c2ccccc2)cc1` [Compound 1, reference compound] yielded an IC50 (TRPM8) of 16000 ± 1000 nM.

`O=C(NC1CCc2ccccc2C1)c1ccc(-c2ccccc2)cc1` (stereo not drawn) [Compound 11, N-(1,2,3,4-tetrahydronaphthalen-2-yl)-[1,1′-biphenyl]-4-carboxamide] was tested, and the “decrease of hTRPM8 potency (vs. Compound 10)” value (TRPM8; icilin Ca2+ assay) was 9 fold, the IC50 (TRPM8) was 52 ± 1 nM and the inhibition at 0.1 µM (human TRPA1; [4]) was 3 ± 6%. For the same molecule, the inhibition at 1 µM (human TRPA1; [4]) was 4 ± 1%, the “hTRPA1 % Activation (n = 3-5)” value (human TRPA1; [5]) was −0.1 ± 0.5% and the “hTRPA1 % Activation (n = 3-5)” value (human TRPA1; [6]) was −0.8 ± 0.6%. The inhibition at 0.1 µM (human TRPV1; [7]) was -3.1 ± 0.6%, the inhibition at 1 µM (human TRPV1; [7]) was 13 ± 3% and the “hTRPV1 % Activation (n = 3)” value (human TRPV1; [8]) was −1.8 ± 0.9%. The “hTRPV1 % Activation (n = 3)” value (human TRPV1; [9]) was −0.7 ± 1.5%.

Work on `Oc1cc2c(cc1O)CN(C(=S)NCCc1ccc(Cl)cc1)CCC2` [Capsazepine, reference compound] yielded an inhibition at 0.003 µM (human TRPV1; [10]) of 1.6 ± 4.2%, an inhibition at 0.01 µM (human TRPV1; [10]) of 0.1 ± 1.3% and an inhibition at 0.03 µM (human TRPV1; [10]) of 1.1 ± 1.7%. For the same molecule, the inhibition at 0.1 µM (human TRPV1; [10]) was 7.1 ± 2.2%, the inhibition at 0.3 µM (human TRPV1; [10]) was 23.4 ± 2.5% and the inhibition at 1 µM (human TRPV1; [10]) was 94.2 ± 1.1%. The inhibition at 3 µM (human TRPV1; [10]) was 100.6 ± 0.3%, the inhibition at 10 µM (human TRPV1; [10]) was 101.2 ± 0.5% and the IC50 (human TRPV1; capsaicin 100 nM; read-out: IC50, blockade of capsaicin-activated hTRPV1 responses) was 451 ± 48 nM.

`O=C(NC1CCCCCC1)c1ccc(-c2ccccc2)cc1` [Compound 5, N-cycloheptyl-[1,1′-biphenyl]-4-carboxamide] gave an IC50 (TRPM8; [11]) of 52 ± 1 nM, an inhibition at 0.1 µM (human TRPA1; [1]) of -2 ± 5% and an inhibition at 1 µM (human TRPA1; [1]) of 4 ± 5%. The “hTRPA1 % Activation (n = 3-5)” value (human TRPA1; [5]) was 0.1 ± 0.7%, the “hTRPA1 % Activation (n = 3-5)” value (human TRPA1; [6]) was 0.8 ± 0.5% and the inhibition at 0.1 µM (human TRPV1; [3]) was -3 ± 4%. The inhibition at 1 µM (human TRPV1; [3]) was 24 ± 1%, the “hTRPV1 % Activation (n = 3)” value (human TRPV1; [8]) was 0.0 ± 1.0% and the “hTRPV1 % Activation (n = 3)” value (human TRPV1; [9]) was 0.6 ± 1.5%.

For `O=C(NC1CCCc2ccccc21)c1ccc(-c2ccccc2)cc1` (stereo not drawn) [Compound 9, N-(1,2,3,4-tetrahydronaphthalen-1-yl)-[1,1′-biphenyl]-4-carboxamide], the “loss of potency vs. Compound 8” value (TRPM8; icilin Ca2+ assay) was 3 fold and the IC50 (TRPM8) was 55000 ± 1000 nM.

For `O=C(NC1CC2CCC(C2)C1)c1ccc(-c2ccccc2)cc1` (stereo not drawn) [Compound 6, N-(bicyclo[3.2.1]octan-3-yl)-[1,1′-biphenyl]-4-carboxamide], the IC50 (TRPM8; [11]) was 692 ± 1 nM.

`O=C(NC1CCC2(CCCCC2)CC1)c1ccc(-c2ccccc2)cc1` [Compound 13, N-(spiro[5.5]undecan-3-yl)-[1,1′-biphenyl]-4-carboxamide] showed an IC50 (TRPM8; [11]) of 40 ± 1 nM, an inhibition at 0.1 µM (human TRPA1; [1]) of -1 ± 5% and an inhibition at 1 µM (human TRPA1; [1]) of -7 ± 9%. The “effect on hTRPA1-mediated responses (intrinsic and antagonist activity)” value (human TRPA1; [2]) was “do not affect”, the “hTRPA1 % Activation (n = 3-5)” value (human TRPA1; [5]) was 0.2 ± 0.5% and the “hTRPA1 % Activation (n = 3-5)” value (human TRPA1; [6]) was −0.2 ± 1.1%. The inhibition at 0.1 µM (human TRPV1; [3]) was -3 ± 4%, the inhibition at 1 µM (human TRPV1; [3]) was 5 ± 2% and the “effect on hTRPV1-mediated responses (intrinsic and antagonist activity)” value (human TRPV1; [2]) was “do not affect”. The “hTRPV1 % Activation (n = 3)” value (human TRPV1; [8]) was −1.0 ± 0.4% and the “hTRPV1 % Activation (n = 3)” value (human TRPV1; [9]) was 0.7 ± 0.2%.

`O=C(NC1CCCCC1)c1ccc(-c2ccccc2)cc1` [Compound 3, N-cyclohexyl-[1,1′-biphenyl]-4-carboxamide] was tested, and the IC50 (TRPM8; [11]) was 49000 ± 1000 nM.

With `O=C(NC1CCCC2CCCCC21)c1ccc(-c2ccccc2)cc1` (mixture of isomers) [Compound 8, N-(decahydronaphthalen-1-yl)-[1,1′-biphenyl]-4-carboxamide] the IC50 (TRPM8; [11]) was 21000 ± 1000 nM.

In the case of `COc1cc(CNC(=O)CCCC/C=C/C(C)C)ccc1O` [Capsaicin, reference compound], the “% Activation Mean ± SEM (n = 5), TRPV1 agonist data” value (human TRPV1; 1 nM; normalized to Emax of capsaicin) is reported as −0.2 ± 1.0%, the “% Activation Mean ± SEM (n = 5), TRPV1 agonist data” value (human TRPV1; 3 nM; normalized to Emax of capsaicin) is reported as −1.7 ± 0.7% and the “% Activation Mean ± SEM (n = 5), TRPV1 agonist data” value (human TRPV1; 10 nM; normalized to Emax of capsaicin) is reported as 15.2 ± 0.6%. For the same molecule, the “% Activation Mean ± SEM (n = 5), TRPV1 agonist data” value (human TRPV1; 30 nM; normalized to Emax of capsaicin) was 72.4 ± 2.3%, the “% Activation Mean ± SEM (n = 5), TRPV1 agonist data” value (human TRPV1; 100 nM; normalized to Emax of capsaicin) was 81.4 ± 3.3% and the “% Activation Mean ± SEM (n = 5), TRPV1 agonist data” value (human TRPV1; 300 nM; normalized to Emax of capsaicin) was 91.8 ± 3.7%. For the same molecule, the “% Activation Mean ± SEM (n = 5), TRPV1 agonist data” value (human TRPV1; 1,000 nM; normalized to Emax of capsaicin) was 101.6 ± 2.0%, the “% Activation Mean ± SEM, TRPV1 agonist data” value (human TRPV1; 3,000 nM; normalized to Emax of capsaicin; n = 10) was 100.0 ± 1.8 % and the “% Activation, EC80 agonist control of the TRPV1 antagonist assay” value (human TRPV1; Capsaicin EC80, 100 nM; normalization control) was 100%.

`C=CCN=C=S` [AITC, Allyl isothiocyanate, reference compound] was tested, and the “% Activation Mean ± SEM (n = 5), TRPA1 agonist data” value (human TRPA1; 100 nM; normalized to Emax of AITC) was −0.8 ± 0.4%, the “% Activation Mean ± SEM (n = 5), TRPA1 agonist data” value (human TRPA1; 300 nM; normalized to Emax of AITC) was −0.5 ± 0.2% and the “% Activation Mean ± SEM (n = 5), TRPA1 agonist data” value (human TRPA1; 1,000 nM; normalized to Emax of AITC) was −0.5 ± 0.2%. The “% Activation Mean ± SEM (n = 5), TRPA1 agonist data” value (human TRPA1; 3,000 nM; normalized to Emax of AITC) was −1.2 ± 0.2%, the “% Activation Mean ± SEM (n = 5), TRPA1 agonist data” value (human TRPA1; 10,000 nM; normalized to Emax of AITC) was 68.8 ± 2.9% and the “% Activation Mean ± SEM (n = 5), TRPA1 agonist data” value (human TRPA1; 30,000 nM; normalized to Emax of AITC) was 78.5 ± 1.0%. The “% Activation Mean ± SEM (n = 5), TRPA1 agonist data” value (human TRPA1; 100,000 nM; normalized to Emax of AITC) was 94.2 ± 2.4% and the “% Activation Mean ± SEM, TRPA1 agonist data” value (human TRPA1; 300,000 nM; normalized to Emax of AITC; n = 10) was 100.0 ± 1.3 %.

`O=C(NC1CCCCCCC1)c1ccc(-c2ccccc2)cc1` [Compound 7, N-cyclooctyl-[1,1′-biphenyl]-4-carboxamide] showed an IC50 (TRPM8; [11]) of 62 ± 1 nM, an inhibition at 0.1 µM (human TRPA1; [1]) of -13 ± 4% and an inhibition at 1 µM (human TRPA1; [1]) of 0.2 ± 6%. The “hTRPA1 % Activation (n = 3-5)” value (human TRPA1; [5]) was −1.0 ± 0.1%, the “hTRPA1 % Activation (n = 3-5)” value (human TRPA1; [6]) was −1.5 ± 0.9% and the inhibition at 0.1 µM (human TRPV1; [3]) was -4 ± 4%. The inhibition at 1 µM (human TRPV1; [3]) was 14 ± 4%, the “hTRPV1 % Activation (n = 3)” value (human TRPV1; [8]) was −1.9 ± 0.7% and the “hTRPV1 % Activation (n = 3)” value (human TRPV1; [9]) was −3.2 ± 0.6%.

With `O=C(NC1CC2CCC1C2)c1ccc(-c2ccccc2)cc1` (single isomer, unassigned) [Compound 4, N-(bicyclo[2.2.1]heptan-2-yl)-[1,1′-biphenyl]-4-carboxamide] the IC50 (TRPM8) was 7100 ± 900 nM.

`CC1CCC(C(C)C)C(NC(=O)c2ccc(-c3ccccc3)cc2)C1` (mixture of isomers) [Compound 2, N-(2-isopropyl-5-methylcyclohexyl)-[1,1′-biphenyl]-4-carboxamide] was tested, and the “increase of hTRPM8 activity relative to Compound 1” value (TRPM8; icilin Ca2+ assay) was 30 fold and the IC50 (TRPM8; [11]) was 468 ± 1 nM.
